Reference: patent US20220119354A1, “DIAMINO-SUBSTITUTED PYRIDINES AND PYRIMIDINES AS HERBICIDES” (FMC Corporation, priority 2019, published 2022)

Legend:
Format in all cases: in vivo
[1] = tested on: barnyardgrass (Echinochloa crus-galli); experiment: Test A preemergence, barnyardgrass; conditions: 0 to 100 scale
Outline: (§1)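 Compound, in a non-phytotoxic solvent blend containing surfactant, is sprayed onto soil immediately after sowing or onto young plants (one- to two-leaf, 2–10 cm). After roughly 10 d under greenhouse conditions, injury is judged by eye relative to untreated plants on a 0–100 control scale.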

kochia (Kochia scoparia) [2] = experiment: Test A preemergence, kochia; conditions: 0 to 100 scale
Outline: as §1

[3] = tested on: ragweed (common ragweed, Ambrosia elatior); experiment: Test A preemergence, ragweed; conditions: 0 to 100 scale
Outline: as §1

[4] = tested on: ryegrass, Italian (Lolium multiflorum); experiment: Test A preemergence, Italian ryegrass; conditions: 0 to 100 scale
Outline: as §1

[5] = tested on: foxtail, giant (Setaria faberii); experiment: Test A preemergence, giant foxtail; conditions: 0 to 100 scale
Outline: as §1

[6] = tested on: pigweed (Amaranthus retroflexus); experiment: Test A preemergence, pigweed; conditions: 0 to 100 scale
Outline: as §1

[7] = tested on: barnyardgrass (Echinochloa crus-galli); experiment: Test A postemergence, barnyardgrass; conditions: 0 to 100 scale
Outline: as §1

kochia (Kochia scoparia) [8] = experiment: Test A postemergence, kochia; conditions: 0 to 100 scale
Outline: as §1

[9] = tested on: ragweed (common ragweed, Ambrosia elatior); experiment: Test A postemergence, ragweed; conditions: 0 to 100 scale
Outline: as §1

[10] = tested on: ryegrass, Italian (Lolium multiflorum); experiment: Test A postemergence, Italian ryegrass; conditions: 0 to 100 scale
Outline: as §1

[11] = tested on: foxtail, giant (Setaria faberii); experiment: Test A postemergence, giant foxtail; conditions: 0 to 100 scale
Outline: as §1

[12] = tested on: pigweed (Amaranthus retroflexus); experiment: Test A postemergence, pigweed; conditions: 0 to 100 scale
Outline: as §1

[13] = tested on: wheat (Triticum aestivum); experiment: Test A postemergence, wheat; conditions: 0 to 100 scale
Outline: as §1

corn (Zea mays) = experiment: Test A postemergence, corn; conditions: 0 to 100 scale
Outline: as §1

[14] = tested on: blackgrass (Alopecurus myosuroides); experiment: Test A postemergence, blackgrass; conditions: 0 to 100 scale
Outline: as §1

[15] = tested on: galium (catchweed bedstraw, Galium aparine); experiment: Test A postemergence, galium; conditions: 0 to 100 scale
Outline: as §1

rice (Oryza sativa) = experiment: Test B flooded paddy test, rice; conditions: Flood, 250 g ai/ha, applied to paddy water, 2-leaf stage, visual evaluation after 13 to 15 d
Outline: (§2)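 Pots flooded to 3 cm above the soil when treated, with test compound added straight to the water and the flood maintained. Treated plants were at the 2-leaf stage and stayed 13–15 d in greenhouse. Response versus untreated controls scored visually from 0 (no effect) to 100 (complete control).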

[16] = tested on: sedge, umbrella (small-flower umbrella sedge, Cyperus difformis); experiment: Test B flooded paddy test, umbrella sedge; conditions: Flood, 250 g ai/ha, applied to paddy water, 2-leaf stage, visual evaluation after 13 to 15 d
Outline: as §2

[17] = tested on: ducksalad (Heteranthera limosa); experiment: Test B flooded paddy test, ducksalad; conditions: Flood, 250 g ai/ha, applied to paddy water, 2-leaf stage, visual evaluation after 13 to 15 d
Outline: as §2

[18] = tested on: barnyardgrass (Echinochloa crus-galli); experiment: Test B flooded paddy test, barnyardgrass; conditions: Flood, 250 g ai/ha, applied to paddy water, 2-leaf stage, visual evaluation after 13 to 15 d
Outline: as §2

SMILES | Plant response rating, Barnyardgrass ([1]; 125 g ai/ha) | Plant response rating, Barnyardgrass ([1]; 500 g ai/ha) | Plant response rating, Kochia (kochia (Kochia scoparia) [2]; 125 g ai/ha) | Plant response rating, Kochia (kochia (Kochia scoparia) [2]; 500 g ai/ha) | Plant response rating, Ragweed ([3]; 125 g ai/ha) | Plant response rating, Ragweed ([3]; 500 g ai/ha) | Plant response rating, Ryegrass, Italian ([4]; 125 g ai/ha) | Plant response rating, Ryegrass, Italian ([4]; 500 g ai/ha) | Plant response rating, Foxtail, Giant ([5]; 125 g ai/ha) | Plant response rating, Foxtail, Giant ([5]; 500 g ai/ha) | Plant response rating, Pigweed ([6]; 125 g ai/ha) | Plant response rating, Pigweed ([6]; 500 g ai/ha) | Plant response rating, Barnyardgrass ([7]; 125 g ai/ha) | Plant response rating, Barnyardgrass ([7]; 500 g ai/ha) | Plant response rating, Kochia (kochia (Kochia scoparia) [8]; 125 g ai/ha) | Plant response rating, Kochia (kochia (Kochia scoparia) [8]; 500 g ai/ha) | Plant response rating, Ragweed ([9]; 125 g ai/ha) | Plant response rating, Ragweed ([9]; 500 g ai/ha) | Plant response rating, Ryegrass, Italian ([10]; 125 g ai/ha) | Plant response rating, Ryegrass, Italian ([10]; 500 g ai/ha) | further results
CC(Nc1ncc(C(F)(F)F)c(N)n1)C1Cc2ccccc2C1 (racemic) [Compound 6] | 0 | 60 | 80 | 100 | 30 | 100 | 30 | 70 | 90 | 100 | 100 | 100 | 10 | 10 | 70 | 90 | 20 | 40 | 0 | 20 | Plant response rating, Foxtail, Giant ([11]; 125 g ai/ha): 0; Plant response rating, Foxtail, Giant ([11]; 500 g ai/ha): 20; Plant response rating, Pigweed ([12]; 125 g ai/ha): 90; Plant response rating, Pigweed ([12]; 500 g ai/ha): 100; Plant response rating, Wheat ([13]; 125 g ai/ha): 0; Plant response rating, Wheat ([13]; 500 g ai/ha): 0; Plant response rating, Corn (corn (Zea mays); 125 g ai/ha): 0; Plant response rating, Corn (corn (Zea mays); 500 g ai/ha): 20; Plant response rating, Blackgrass ([14]; 125 g ai/ha): 0; Plant response rating, Blackgrass ([14]; 500 g ai/ha): 10; Plant response rating, Galium ([15]; 125 g ai/ha): 40; Plant response rating, Galium ([15]; 500 g ai/ha): 70; Plant response rating, Rice (0 to 100 scale, 0 is no effect, 100 is complete control) (rice (Oryza sativa)): 0; Plant response rating, Sedge, Umbrella (0 to 100 scale, 0 is no effect, 100 is complete control) [16]: 0; Plant response rating, Ducksalad (0 to 100 scale, 0 is no effect, 100 is complete control) [17]: 0; Plant response rating, Barnyardgrass (0 to 100 scale, 0 is no effect, 100 is complete control) [18]: 0
Nc1nc(NC(c2cc3ccccc3o2)C2CC2)ncc1C(F)(F)F (racemic) [Compound 18] | 50 | 80 | 0 | 60 | 80 | 100 | 50 | 50 | 90 | 90 | 90 | 100 | 10 | 80 | 50 | 90 | 20 | 70 | 0 | 30 | Plant response rating, Foxtail, Giant ([11]; 125 g ai/ha): 0; Plant response rating, Foxtail, Giant ([11]; 500 g ai/ha): 70; Plant response rating, Pigweed ([12]; 125 g ai/ha): 90; Plant response rating, Pigweed ([12]; 500 g ai/ha): 100; Plant response rating, Wheat ([13]; 125 g ai/ha): 20; Plant response rating, Wheat ([13]; 500 g ai/ha): 10; Plant response rating, Corn (corn (Zea mays); 125 g ai/ha): 0; Plant response rating, Corn (corn (Zea mays); 500 g ai/ha): 0; Plant response rating, Blackgrass ([14]; 125 g ai/ha): 20; Plant response rating, Blackgrass ([14]; 500 g ai/ha): 80; Plant response rating, Galium ([15]; 125 g ai/ha): 40; Plant response rating, Galium ([15]; 500 g ai/ha): 90; Plant response rating, Rice (0 to 100 scale, 0 is no effect, 100 is complete control) (rice (Oryza sativa)): 0; Plant response rating, Sedge, Umbrella (0 to 100 scale, 0 is no effect, 100 is complete control) [16]: 98; Plant response rating, Ducksalad (0 to 100 scale, 0 is no effect, 100 is complete control) [17]: 85; Plant response rating, Barnyardgrass (0 to 100 scale, 0 is no effect, 100 is complete control) [18]: 0
CC(Nc1ncc(C#N)c(N)n1)c1cc2ccccc2o1 (racemic) [Compound 19] | 0 | 0 | 0 | 20 | 0 | 50 | 0 | 60 | 0 | 20 | 30 | 90 | 0 | 0 | 0 | 30 | 0 | 0 | 0 | 20 | Plant response rating, Foxtail, Giant ([11]; 125 g ai/ha): 0; Plant response rating, Foxtail, Giant ([11]; 500 g ai/ha): 0; Plant response rating, Pigweed ([12]; 125 g ai/ha): 0; Plant response rating, Pigweed ([12]; 500 g ai/ha): 50; Plant response rating, Wheat ([13]; 125 g ai/ha): 0; Plant response rating, Wheat ([13]; 500 g ai/ha): 0; Plant response rating, Corn (corn (Zea mays); 125 g ai/ha): 0; Plant response rating, Corn (corn (Zea mays); 500 g ai/ha): 10; Plant response rating, Blackgrass ([14]; 125 g ai/ha): 20; Plant response rating, Blackgrass ([14]; 500 g ai/ha): 60; Plant response rating, Galium ([15]; 125 g ai/ha): 0; Plant response rating, Galium ([15]; 500 g ai/ha): 70; Plant response rating, Rice (0 to 100 scale, 0 is no effect, 100 is complete control) (rice (Oryza sativa)): 0; Plant response rating, Sedge, Umbrella (0 to 100 scale, 0 is no effect, 100 is complete control) [16]: 0; Plant response rating, Ducksalad (0 to 100 scale, 0 is no effect, 100 is complete control) [17]: 0; Plant response rating, Barnyardgrass (0 to 100 scale, 0 is no effect, 100 is complete control) [18]: 0
CCC(Nc1ncc(C#N)c(N)n1)c1cc2ccccc2o1 (racemic) [Compound 20] | 40 | 50 | 0 | 30 | 40 | 60 | 30 | 90 | 0 | 80 | 50 | 100 | 0 | 40 | 50 | 90 | 20 | 70 | 0 | 0 | Plant response rating, Foxtail, Giant ([11]; 125 g ai/ha): 0; Plant response rating, Foxtail, Giant ([11]; 500 g ai/ha): 10; Plant response rating, Pigweed ([12]; 125 g ai/ha): 60; Plant response rating, Pigweed ([12]; 500 g ai/ha): 90; Plant response rating, Wheat ([13]; 125 g ai/ha): 0; Plant response rating, Wheat ([13]; 500 g ai/ha): 10; Plant response rating, Corn (corn (Zea mays); 125 g ai/ha): 0; Plant response rating, Corn (corn (Zea mays); 500 g ai/ha): 20; Plant response rating, Blackgrass ([14]; 125 g ai/ha): 30; Plant response rating, Blackgrass ([14]; 500 g ai/ha): 100; Plant response rating, Galium ([15]; 125 g ai/ha): 30; Plant response rating, Galium ([15]; 500 g ai/ha): 80; Plant response rating, Rice (0 to 100 scale, 0 is no effect, 100 is complete control) (rice (Oryza sativa)): 0; Plant response rating, Sedge, Umbrella (0 to 100 scale, 0 is no effect, 100 is complete control) [16]: 0; Plant response rating, Ducksalad (0 to 100 scale, 0 is no effect, 100 is complete control) [17]: 0; Plant response rating, Barnyardgrass (0 to 100 scale, 0 is no effect, 100 is complete control) [18]: 0
CCC(Nc1ncc(C(F)(F)F)c(N)n1)c1cc2ccccc2o1 (racemic) [Compound 28] | 50 | 90 | 10 | 90 | 20 | 100 | 20 | 60 | 60 | 90 | 90 | 100 | 0 | 30 | 30 | 80 | 20 | 60 | 0 | 0 | Plant response rating, Foxtail, Giant ([11]; 125 g ai/ha): 10; Plant response rating, Foxtail, Giant ([11]; 500 g ai/ha): 40; Plant response rating, Pigweed ([12]; 125 g ai/ha): 90; Plant response rating, Pigweed ([12]; 500 g ai/ha): 100; Plant response rating, Wheat ([13]; 125 g ai/ha): 0; Plant response rating, Wheat ([13]; 500 g ai/ha): 10; Plant response rating, Corn (corn (Zea mays); 125 g ai/ha): 0; Plant response rating, Corn (corn (Zea mays); 500 g ai/ha): 80; Plant response rating, Blackgrass ([14]; 125 g ai/ha): 10; Plant response rating, Blackgrass ([14]; 500 g ai/ha): 80; Plant response rating, Galium ([15]; 125 g ai/ha): 70; Plant response rating, Galium ([15]; 500 g ai/ha): 90; Plant response rating, Rice (0 to 100 scale, 0 is no effect, 100 is complete control) (rice (Oryza sativa)): 20; Plant response rating, Sedge, Umbrella (0 to 100 scale, 0 is no effect, 100 is complete control) [16]: 100; Plant response rating, Ducksalad (0 to 100 scale, 0 is no effect, 100 is complete control) [17]: 75; Plant response rating, Barnyardgrass (0 to 100 scale, 0 is no effect, 100 is complete control) [18]: 0
